Data taken from PubChem BioAssay (NCI).
Where “and” joins values, the source holds several entries; their conditions need not be identical. Identical values can stand only once.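 Results reflect a 48-hour exposure of cells in 96-well plates to compound at five concentrations. GI50 marks 50% less growth. Definition used: TGI = concentration required for complete inhibition of growth.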

Legend:
Experiment in all cases: NCI-60 cell line screen, 48 h
MDA-MB-231 breast = tested on: MDA-MB-231 breast
HOP-92 NSCLC = tested on: HOP-92 NSCLC
PC-3 prostate = tested on: PC-3 prostate
DU-145 prostate = tested on: DU-145 prostate
NCI/ADR-RES ovarian = tested on: NCI/ADR-RES ovarian
T-47D breast = tested on: T-47D breast
NCI-H460 lung = tested on: NCI-H460 lung
SN12C renal = tested on: SN12C renal
OVCAR-8 ovarian = tested on: OVCAR-8 ovarian
SF-268 CNS = tested on: SF-268 CNS

## OCC1OC(n2cnc3c(=S)nc[nH]c32)C(O)C1O (configuration not stated)
MDA-MB-231 breast
  GI50: 14.1 µM
  TGI: > 2500 µM
HOP-92 NSCLC
  GI50: 0.698 µM
  TGI: > 1780 µM
PC-3 prostate
  GI50: 6.71 µM
  TGI: > 2500 µM
DU-145 prostate
  TGI: > 2500 µM
NCI/ADR-RES ovarian
  GI50: 3.52 µM
  TGI: > 2500 µM
T-47D breast
  GI50: 2.95 µM
  TGI: > 2500 µM
NCI-H460 lung
  GI50: 7.72 µM
  TGI: > 2500 µM
SN12C renal
  GI50: 34.3 µM
  TGI: > 2500 µM
OVCAR-8 ovarian
  GI50: 6.36 µM
  TGI: > 2500 µM
SF-268 CNS
  GI50: > 23.9 µM
  TGI: > 2500 µM

## CN(C)CC1CCCCCC(CN(C)C)C1=O (configuration not stated)
MDA-MB-231 breast
  GI50: 8.68 µM
  TGI: 23.8 µM
HOP-92 NSCLC
  GI50: 2.69 µM
  TGI: 8.11 µM
PC-3 prostate
  GI50: 8.71 µM
  TGI: 24.2 µM
DU-145 prostate
  GI50: 3.19 µM
  TGI: 12.4 µM
NCI/ADR-RES ovarian
  GI50: 3.39 µM
  TGI: 14.3 µM
T-47D breast
  GI50: 2.12 µM
  TGI: 12.5 µM
NCI-H460 lung
  GI50: 18 µM
  TGI: 36.8 µM
SN12C renal
  GI50: 7.9 µM
  TGI: 22.8 µM
OVCAR-8 ovarian
  GI50: 2.61 µM
  TGI: 8.54 µM
SF-268 CNS
  GI50: 7.72 µM
  TGI: 23.4 µM

## CCCOC(=O)CCn1c(SC)nc2[nH]cc(-c3ccccc3)c2c1=O
MDA-MB-231 breast
  GI50: 38.3 µM
  TGI: > 100 µM
HOP-92 NSCLC
  GI50: 3.64 µM
  TGI: 40.4 µM
PC-3 prostate
  GI50: 14.6 µM
  TGI: 50.1 µM
DU-145 prostate
  GI50: 27.8 µM
  TGI: > 100 µM
NCI/ADR-RES ovarian
  GI50: 25.4 µM
  TGI: > 100 µM
T-47D breast
  GI50: 11.7 µM
  TGI: 62 µM
NCI-H460 lung
  GI50: 13.4 µM
  TGI: > 100 µM
SN12C renal
  GI50: 20.1 µM
  TGI: > 100 µM
OVCAR-8 ovarian
  GI50: 20.5 µM
  TGI: > 100 µM
SF-268 CNS
  GI50: 14.5 µM
  TGI: > 100 µM

## Nc1nc(N)c(N=O)c(OCC2CCCCC2)n1
MDA-MB-231 breast
  GI50: 8.07 µM
  TGI: 77.9 µM and > 31.4 µM
HOP-92 NSCLC
  GI50: 2.25 µM
  TGI: 8.41 µM and 59.2 µM
PC-3 prostate
  GI50: 3.23 µM
  TGI: > 100 µM and 22.9 µM
DU-145 prostate
  GI50: 5.93 µM
  TGI: > 100 µM
NCI/ADR-RES ovarian
  TGI: > 100 µM
T-47D breast
  GI50: 4.09 µM
  TGI: > 58.6 µM and 23.9 µM
NCI-H460 lung
  GI50: 8.93 µM
  TGI: > 80.5 µM and 38.1 µM
SN12C renal
  GI50: 5.87 µM
  TGI: > 100 µM and 62.8 µM
OVCAR-8 ovarian
  TGI: > 100 µM
SF-268 CNS
  GI50: 5.82 µM
  TGI: > 95.4 µM

## O=C(COc1cccc(/C=C2\COc3ccc(Cl)cc3C2=O)c1)c1ccc(Cl)cc1
MDA-MB-231 breast
  GI50: 4.08 µM
  TGI: 21.1 µM
HOP-92 NSCLC
  GI50: 0.536 µM
  TGI: 13.4 µM
PC-3 prostate
  GI50: 12.4 µM
  TGI: 28.9 µM
DU-145 prostate
  GI50: 14.7 µM
  TGI: 27.8 µM
NCI/ADR-RES ovarian
  GI50: 20.5 µM
  TGI: 69.6 µM
T-47D breast
  GI50: 11.4 µM
  TGI: 26.1 µM
NCI-H460 lung
  GI50: 15.8 µM
  TGI: 30.1 µM
SN12C renal
  GI50: 13.7 µM
  TGI: 28.5 µM
OVCAR-8 ovarian
  GI50: 15.8 µM
  TGI: 37.5 µM
SF-268 CNS
  GI50: 13.9 µM
  TGI: 26.9 µM

## Clc1nc(Cl)c(-c2ccccc2)c(Cl)n1
MDA-MB-231 breast
  TGI: 10.7 µM
HOP-92 NSCLC
  TGI: 11.4 µM
PC-3 prostate
  TGI: 16.5 µM
DU-145 prostate
  TGI: 26.4 µM
NCI/ADR-RES ovarian
  TGI: 11 µM
T-47D breast
  TGI: 9.28 µM
NCI-H460 lung
  TGI: 35.9 µM
SN12C renal
  TGI: 8.84 µM
OVCAR-8 ovarian
  TGI: 10.6 µM
SF-268 CNS
  TGI: > 29.9 µM

## Nc1c(C(=O)Nc2ccccc2)sc2nc3c(cc12)CN(Cc1ccccc1)CC3
MDA-MB-231 breast
  GI50: 5.81 µM
  TGI: > 100 µM
HOP-92 NSCLC
  GI50: 2.48 µM
  TGI: 20.4 µM
PC-3 prostate
  GI50: 27.1 µM
  TGI: > 100 µM
DU-145 prostate
  GI50: 14.8 µM
  TGI: > 100 µM
NCI/ADR-RES ovarian
  GI50: 16.3 µM
  TGI: > 100 µM
T-47D breast
  GI50: 16.2 µM
  TGI: > 100 µM
NCI-H460 lung
  GI50: 7.51 µM
  TGI: > 100 µM
SN12C renal
  GI50: 65.7 µM
  TGI: > 100 µM
OVCAR-8 ovarian
  GI50: 16.8 µM
  TGI: > 100 µM
SF-268 CNS
  GI50: 5.62 µM
  TGI: > 100 µM

## CCCCCCCOc1c(OC)cc(C2CC(=O)Nc3c2c(C)nn3-c2nc3ccccc3[nH]2)cc1OC (configuration not stated)
MDA-MB-231 breast
  GI50: 1.98 µM
  TGI: 4.12 µM
HOP-92 NSCLC
  GI50: 2.34 µM
  TGI: 7.68 µM
PC-3 prostate
  GI50: 3.67 µM
  TGI: > 100 µM
DU-145 prostate
  GI50: 4.66 µM
  TGI: > 100 µM
NCI/ADR-RES ovarian
  GI50: 3.83 µM
  TGI: > 100 µM
T-47D breast
  GI50: 3.95 µM
  TGI: > 100 µM
NCI-H460 lung
  GI50: 1.87 µM
  TGI: 3.82 µM
SN12C renal
  GI50: 3.48 µM
  TGI: > 100 µM
OVCAR-8 ovarian
  GI50: 4.28 µM
  TGI: > 100 µM
SF-268 CNS
  GI50: 2.12 µM
  TGI: 6.68 µM

## CCCOc1nc(SCCC)nc2c1cnn2-c1ccccc1
MDA-MB-231 breast
  GI50: > 100 µM
  TGI: > 100 µM
HOP-92 NSCLC
  GI50: 2.93 µM
  TGI: > 100 µM
PC-3 prostate
  GI50: 30.7 µM
  TGI: > 100 µM
DU-145 prostate
  GI50: > 100 µM
  TGI: > 100 µM
NCI/ADR-RES ovarian
  GI50: > 100 µM
  TGI: > 100 µM
T-47D breast
  GI50: > 100 µM
  TGI: > 100 µM
NCI-H460 lung
  GI50: > 100 µM
  TGI: > 100 µM
SN12C renal
  GI50: > 100 µM
  TGI: > 100 µM
OVCAR-8 ovarian
  GI50: > 100 µM
  TGI: > 100 µM
SF-268 CNS
  GI50: > 100 µM
  TGI: > 100 µM

## C=C1CCC2C3(C)COC(c4ccccc4Br)OC3CCC2(C)C1C/C=C1/C(=O)OCC1OC(C)=O (configuration not stated)
MDA-MB-231 breast
  GI50: 1.47 µM
  TGI: 3.16 µM
HOP-92 NSCLC
  GI50: 1.36 µM
  TGI: 3.02 µM
PC-3 prostate
  GI50: 1.63 µM
  TGI: 3.76 µM
DU-145 prostate
  GI50: 1.58 µM
  TGI: 2.99 µM
NCI/ADR-RES ovarian
  GI50: 1.18 µM
  TGI: 3.12 µM
T-47D breast
  GI50: 1.08 µM
  TGI: 2.77 µM
NCI-H460 lung
  GI50: 1.74 µM
  TGI: 3.29 µM
SN12C renal
  GI50: 1.36 µM
  TGI: 3.28 µM
OVCAR-8 ovarian
  GI50: 0.584 µM
  TGI: 1.8 µM
SF-268 CNS
  GI50: 1.65 µM
  TGI: 3.01 µM

## COc1cc2c3c(n(C)c(=O)c2cc1OC)-c1cc2c(cc1/C3=C\C(N)CN)OCO2 (configuration not stated)
MDA-MB-231 breast
  GI50: 4.15 µM
  TGI: > 53.3 µM
HOP-92 NSCLC
  GI50: 0.368 µM
  TGI: 6.8 µM
PC-3 prostate
  GI50: 5.27 µM
  TGI: 20.5 µM
DU-145 prostate
  GI50: 2.02 µM
  TGI: 10 µM
NCI/ADR-RES ovarian
  GI50: > 74.8 µM
  TGI: > 100 µM
T-47D breast
  GI50: 1.94 µM
  TGI: 10.3 µM
NCI-H460 lung
  GI50: 1.5 µM
  TGI: 7.58 µM
SN12C renal
  GI50: 1.81 µM
  TGI: > 26.4 µM
OVCAR-8 ovarian
  GI50: 1.75 µM
  TGI: 18.8 µM
SF-268 CNS
  GI50: 0.692 µM
  TGI: 15 µM

## CCC(/C=C/c1ccccc1)=N\Nc1ccc(Cl)c(Cl)c1
MDA-MB-231 breast
  TGI: 55.7 µM
HOP-92 NSCLC
  TGI: 58.2 µM
PC-3 prostate
  TGI: > 100 µM
DU-145 prostate
  TGI: > 100 µM
NCI/ADR-RES ovarian
  TGI: > 100 µM
T-47D breast
  TGI: > 100 µM
NCI-H460 lung
  TGI: > 100 µM
SN12C renal
  TGI: 74.8 µM
OVCAR-8 ovarian
  TGI: 39.6 µM
SF-268 CNS
  TGI: > 100 µM

## COc1cc(C2C3=C(COC3=O)Nc3cc4c(cc32)CCC4)cc2c1OCO2 (configuration not stated)
MDA-MB-231 breast
  GI50: 0.0577 µM
  TGI: 5.11 µM
HOP-92 NSCLC
  GI50: 12.7 µM
  TGI: 40.5 µM
PC-3 prostate
  GI50: 0.049 µM
  TGI: 18.2 µM
DU-145 prostate
  GI50: 0.0411 µM
  TGI: 0.296 µM
NCI/ADR-RES ovarian
  GI50: 0.0345 µM
  TGI: 0.881 µM
T-47D breast
  GI50: 12 µM
  TGI: 59.8 µM
NCI-H460 lung
  GI50: 0.0394 µM
  TGI: 6.18 µM
SN12C renal
  GI50: 0.0595 µM
  TGI: 20.2 µM
OVCAR-8 ovarian
  GI50: 0.0399 µM
  TGI: 1.99 µM
SF-268 CNS
  GI50: 0.0558 µM
  TGI: 6.58 µM
